Test results from article PMC6615261, “Repurposing Azithromycin and Rifampicin Against Gram-Negative Pathogens by Combination With Peptidomimetics” (Frontiers in Cellular and Infection Microbiology, 2019).
Like-named read-outs stand apart in the source and are kept apart here.

How the values were obtained:
NIH 3T3 and HepG2 cells = experiment: Effect on viability of mammalian cells (both cell lines); type: cell-based, mouse and human
Procedure: (§1) NIH 3T3 and HepG2 cells (both from ATCC, Manassas, VA, USA) were cultured in flat-bottomed 96-well MicroWell™ plates (NUNC, Roskilde, Denmark) at seeding densities of ~23,000 and ~22,000 cells/well, respectively, and then cultured for 22–24 h under standard culturing conditions (37°C, 5% CO2, humidified air) to reach 80–90% confluence. NIH 3T3 were cultured in Dulbecco's modified Eagle's medium (DMEM) supplemented with 10% (v/v) newborn-calf serum (NCS) (Gibco, Paisly, UK), while HepG2 were cultured in Eagle's minimum essential medium (EMEM) supplemented with 10% (v/v) fetal bovine serum (FBS, Gibco, Paisly, UK), sodium pyruvate (1 mM), and non-essential amino acids (1%, v/v). Both culturing media were further supplemented with penicillin (100 U/mL), streptomycin (100 μg/mL), and L-glutamine (2 mM).
(§2) Effect on cell viability was determined in NIH 3T3 fibroblasts and HepG2 hepatocytes by using the MTS/PMS assay measuring metabolic activity. Briefly, the adhered cells were washed with 37°C Hanks' balanced salt solution (HBSS from Sigma-Aldrich, St. Louis, MO, USA), containing 10 mM HEPES (AppliChem, Darmstadt, Germany), and adjusted to pH 7.4, and were then exposed for 1 h to 100 μL of test compound(s) dissolved in the appropriate culturing medium without serum for each cell line. After exposure the cells were washed with HBSS containing 10 mM HEPES (pH 7.4) and 100 μL of an MTS/PMS solution, consisting of 240 μg/mL MTS (Promega, Madison, WI, USA) and 2.4 μg/mL PMS (SigmaAldrich, Buchs, Switzerland) in HBSS, was added to the cells, which then were incubated for 1 h at 37°C with horizontal shaking under light protection. Absorbance was measured at 492 nm by using a POLARstar OPTIMA plate reader (BMG Labtech, Offenburg, Germany). The relative viability was calculated according to Equation (1) with absorbance values obtained after incubation of cells with test compound; incubation with SDS (0.2%, w/v in medium) defined 100% cell death (Abspos), while the absorbance of cells incubated with medium defined 0% cell death (Absneg).
(§3) (1) Relative viability(%)=(Abssample-Abspos)/(Absneg-Abspos)×100%
(§4) EC50 values were calculated by using GraphPad Prism 7 (GraphPad Software, La Jolla, CA, USA) via fitting of the relative cell viability to the concentration of the test compound by using Equation (2):
(§5) (2) Relative viability(%)= Top-Bottom/1+10^(LogIC50-Log[peptidomimetic]) ×Hill slope
With top and bottom representing the mean highest and lowest observed values, respectively. The Hill slope represents a factor for the steepness of the linear part of the curve. […] The selectivity index was calculated as the average effect on cell viability (EC50 values for HepG2 and NIH 3T3 cells) divided by the MIC.

MDR E. coli ST131 = experiment: Screening of peptidomimetic-antibiotic combinations (growth / growth inhibition); type: cell-based, Escherichia coli; design: key to Growth in combination with RIF / Growth in combination with AZM: Growth (+); growth inhibition (–); details: for Growth in combination with AZM: peptidomimetic 0.5 μM + azithromycin 1 μg/mL; for Growth in combination with RIF: peptidomimetic 0.5 μM + rifampicin 0.5 μg/mL
K. pneumoniae ST258 [1] = experiment: MIC by broth microdilution; type: cell-based, Klebsiella pneumoniae; details: for Selectivity Index (SI) K. pneumoniae ST258: average of EC50 (HepG2, NIH 3T3) divided by MIC; for MIC K. pneumoniae ST258: peptidomimetic alone
Procedure: (§6) Minimal inhibitory concentrations (MICs) of peptidomimetics, antibiotics and their combinations were determined by broth microdilution according to the Clinical Laboratory Standards Institute performance standards (Clinical and Laboratory Standards Institute, [2013]). […] Since rifampicin and azithromycin mainly are used to treat infections with Gram-positive pathogens only CLSI clinical breakpoints were available for such bacteria. […] Potentiation of additional antibiotics by peptidomimetics was determined by using commercial 96-well plates containing varied concentrations of standard antibiotics (COMPAN1F; Trek Diagnostic Systems Inc.). The peptidomimetics were added immediately prior to inoculation with pathogen, and then MICs were determined as above. The MICs of peptidomimetic/antibiotic combinations were determined according to the method above, and the concentration ratios were selected based upon checkerboard results with 2:1 and 1:4 ratio of peptidomimetic with rifampicin or azithromycin, respectively. Minimal bactericidal concentrations (MBCs) were determined by using growth-curve assay plates. MIC plates were prepared as above, and then the plates were incubated at 37°C with continuous shaking. Growth was recorded at 10 min intervals as optical density (OD) at 600 nm during 24 h. At 24 h, for wells without growth, a sample was diluted 10-fold in sterile saline (0.9% sodium chloride) and plated onto MHA, following CLSI guidelines (Clinical and Laboratory Standards Institute, [1999]).

E. coli ST131 [2] = experiment: MIC by broth microdilution; type: cell-based, Escherichia coli; details: for Selectivity Index (SI) E. coli ST131: average of EC50 (HepG2, NIH 3T3) divided by MIC; for MIC E. coli ST131: peptidomimetic alone
Procedure: as §6

P. aeruginosa ATCC 27853 [3] = experiment: MIC by broth microdilution; type: cell-based, Pseudomonas aeruginosa; details: for Selectivity Index (SI) P. aeruginosa ATCC 27853: average of EC50 (HepG2, NIH 3T3) divided by MIC; for MIC P. aeruginosa ATCC 27853: peptidomimetic alone
Procedure: as §6

[4] = MTS/PMS cell viability assay; type: cell-based, mouse; details: mouse, NIH 3T3 fibroblasts, 1 h exposure, read-out: Cytotoxicity NIH 3T3 EC50 ± SD
Procedure: as §1, §2, §3, §4, §5
(§7) With top and bottom representing the mean highest and lowest observed values, respectively. The Hill slope represents a factor for the steepness of the linear part of the curve. In order to prevent erroneous calculation, the top and bottom values were constrained to 100 and 0%, respectively. Data were collected from technical triplicates. The selectivity index was calculated as the average effect on cell viability (EC50 values for HepG2 and NIH 3T3 cells) divided by the MIC.

NIH 3T3 cells = experiment: MTS/PMS cell viability assay; type: cell-based, mouse; details: 1 h exposure, read-out: Cytotoxicity NIH 3T3 EC50 ± SD
Procedure: as §1, §2, §3, §4, §5, §7

K. pneumoniae ST258 [5] = experiment: Screening of peptidomimetic-antibiotic combinations (growth / growth inhibition); type: cell-based, Klebsiella pneumoniae; design: key to Growth in combination with RIF / Growth in combination with AZM: Growth (+); growth inhibition (–); details: for Growth in combination with AZM: peptidomimetic 0.5 μM + azithromycin 1 μg/mL; for Growth in combination with RIF: peptidomimetic 0.5 μM + rifampicin 0.5 μg/mL
[6] = MTS/PMS cell viability assay; type: cell-based; details: human, HepG2 hepatocytes, 1 h exposure, read-out: Cytotoxicity HepG2 EC50 ± SD
Procedure: as §1, §2, §3, §4, §5, §7

K. pneumoniae ST258 [7] = details: for Antibiotic MIC in combination (AZM): MIC of azithromycin combined with the labelled peptidomimetic; for Antibiotic MIC in combination (RIF): MIC of rifampicin combined with the labelled peptidomimetic; for Peptidomimetic MIC alone: checkerboard
Summary of the method: (§8)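 Two-dimensional checkerboard broth microdilution in MHB II, with twofold dilutions of peptidomimetic and antibiotic on crossed axes and 18–20 h incubation per CLSI. FICI = MICA(A+B)/MICA(alone) + MICB(A+B)/MICB(alone); ≤0.5 is interpreted as synergy.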

P. aeruginosa ATCC 27853 [8] = details: for Antibiotic MIC in combination (AZM) / Antibiotic MIC in combination (RIF) / Peptidomimetic MIC alone / Peptidomimetic MIC in combination: P. aeruginosa ATCC 27853; for Antibiotic MIC in combination (AZM): MIC of azithromycin combined with the labelled peptidomimetic; for Antibiotic MIC in combination (RIF): MIC of rifampicin combined with the labelled peptidomimetic; for Peptidomimetic MIC alone: checkerboard; for Reduction of the MIC of azithromycin: P. aeruginosa, sub-MIC concentrations of peptidomimetic
Summary of the method: as §8

E. coli ST131 [9] = details: for Antibiotic MIC in combination (AZM): MIC of azithromycin combined with the labelled peptidomimetic; for Antibiotic MIC in combination (RIF): MIC of rifampicin combined with the labelled peptidomimetic; for Peptidomimetic MIC alone: checkerboard
Summary of the method: as §8

[10] = system: pro-inflammatory effect of LPS; design: method as in Skovbakke et al., 2015; details: at 1 μM; ref Skovbakke et al., 2015; cited from earlier work

| Compound | Growth in combination with AZM (MDR E. coli ST131) | Growth in combination with RIF (MDR E. coli ST131) | Selectivity Index (SI) K. pneumoniae ST258 (K. pneumoniae ST258 [1]) | MIC K. pneumoniae ST258 (K. pneumoniae ST258 [1]) [µM] | Selectivity Index (SI) E. coli ST131 (E. coli ST131 [2]) | MIC E. coli ST131 (E. coli ST131 [2]) [µM] | Selectivity Index (SI) P. aeruginosa ATCC 27853 (P. aeruginosa ATCC 27853 [3]) | MIC P. aeruginosa ATCC 27853 (P. aeruginosa ATCC 27853 [3]) [µM] | EC50 at 1 h [4] [µM] | Growth in combination with AZM (K. pneumoniae ST258 [5]) | Growth in combination with RIF (K. pneumoniae ST258 [5]) | EC50 at 1 h [6] [µM] | Antibiotic MIC in combination (AZM) (K. pneumoniae ST258 [7]) [µg/mL] | Antibiotic MIC in combination (RIF) (K. pneumoniae ST258 [7]) [µg/mL] | Peptidomimetic MIC alone (K. pneumoniae ST258 [7]) [µM] | Antibiotic MIC in combination (AZM) (P. aeruginosa ATCC 27853 [8]) [µg/mL] | Antibiotic MIC in combination (RIF) (P. aeruginosa ATCC 27853 [8]) [µg/mL] | Peptidomimetic MIC alone (P. aeruginosa ATCC 27853 [8]) [µM] | Peptidomimetic MIC in combination (P. aeruginosa ATCC 27853 [8]; combined with AZM) [µM] | Peptidomimetic MIC in combination (P. aeruginosa ATCC 27853 [8]; combined with RIF) [µM] | further results |
| --- | --- | --- | --- | --- | --- | --- | --- | --- | --- | --- | --- | --- | --- | --- | --- | --- | --- | --- | --- | --- | --- |
| COCCOCCOCC(=O)N[C@@H](CCCCN)C(=O)N(CCC(=O)N[C@@H](CCCCNC(=N)N)C(=O)N(CCC(=O)N[C@@H](CCCCN)C(=O)N(CCC(=O)N[C@@H](CCCCNC(=N)N)C(=O)N(CCC(=O)N[C@@H](CCCCN)C(=O)N(CCC(=O)N[C@@H](CCCCNC(=N)N)C(=O)N(CCC(N)=O)[C@@H](C)c1ccccc1)[C@@H](C)c1ccccc1)[C@@H](C)c1ccccc1)[C@@H](C)c1ccccc1)[C@@H](C)c1ccccc1)[C@@H](C)c1ccccc1 [Peptidomimetic 28, TODA-(Lys-βNspe-hArg-βNspe)3-NH2] | – | – | (10) | 16 | (84) | 2 | (10) | 16 | ~218 | + | + | 118 ± 2.05 | 4 | 0.5 | 16 | 0.5 | 0.06 | 16 | 2 | 4 | EC50 (NIH 3T3 and HepG2 cells): > 100 µM; EC50 (NIH 3T3 cells): 218 ± 18.1 µM; Peptidomimetic MIC in combination (K. pneumoniae ST258 [7]; combined with AZM): 2 µM; Peptidomimetic MIC in combination (K. pneumoniae ST258 [7]; combined with RIF): 1 µM; Reduction of the MIC of azithromycin (P. aeruginosa ATCC 27853 [8]): 32- to 512 fold; Antibiotic MIC in combination (AZM) (E. coli ST131 [9]): 0.5 µg/mL; Antibiotic MIC in combination (RIF) (E. coli ST131 [9]): 0.13 µg/mL; Peptidomimetic MIC alone (E. coli ST131 [9]): 2 µM; Peptidomimetic MIC in combination (E. coli ST131 [9]; combined with AZM): 0.5 µM; Peptidomimetic MIC in combination (E. coli ST131 [9]; combined with RIF): 0.5 µM |
| CC(=O)N[C@@H](CCCCN)C(=O)N(CCC(=O)N[C@@H](CCCCN)C(=O)N(CCC(=O)N[C@@H](CCCCN)C(=O)N(CCC(=O)N[C@@H](CCCCN)C(=O)N(CCC(=O)N[C@@H](CCCCN)C(=O)N(CCC(=O)N[C@@H](CCCCN)C(=O)N(CCC(N)=O)Cc1ccccc1)Cc1ccccc1)Cc1ccccc1)Cc1ccccc1)Cc1ccccc1)Cc1ccccc1 [Peptidomimetic 14, Ac-(Lys-βNPhe)6-NH2] | – | – | (4) | 64 | (70) | 4 | (17) | 16 | 323 | + | + | 234 | 4 | 1 | 64 | 1 | 1 | 16 | 4 | 4 | Block of the pro-inflammatory effect of LPS [10]: block the pro-inflammatory effect of LPS; Reduction of the MIC of azithromycin (P. aeruginosa ATCC 27853 [8]): 32- to 512 fold; Antibiotic MIC in combination (AZM) (E. coli ST131 [9]): 1 µg/mL; Antibiotic MIC in combination (RIF) (E. coli ST131 [9]): 0.25 µg/mL; Peptidomimetic MIC alone (E. coli ST131 [9]): 4 µM; Peptidomimetic MIC in combination (E. coli ST131 [9]; combined with AZM): 0.25 µM; Peptidomimetic MIC in combination (E. coli ST131 [9]; combined with RIF): 0.25 µM |
